Here are results for 35 compounds from patent US7273877B2, “5-substituted-4-[(substituted phenyl) amino]-2-pyridone derivatives” (Warner-Lambert Company, LLC, priority 2003, dated 2007).

For the first data set, the system named is phosphorylation of MAP kinase (ERK) in murine colon 26 (C26) carcinoma cells. Description: Cellular inhibition of ERK phosphorylation, C26ELSA (pERK ELISA format). It is filed as cell-based. Particulars: Mus musculus, 1 h, C26 cells treated with test compound for one hour at 37° C. As for the experimental part:
MEK inhibitors were evaluated by determining their ability to inhibit phosphorylation of MAP kinase (ERK) in murine colon 26 (C26) carcinoma cells. Since ERK1 and ERK2 represent the only known substrates for MEK1and MEK2, the measurement of inhibition of ERK phosphorylation in cells provides direct read out of cellular MEK inhibition by the compounds of the invention. Detection of phosphorylation of ERK was carried out either by Western blot or ELISA format. Briefly, the assays involve treatment of exponentially growing C26 cells with varying concentrations of the test compound (or vehicle control) for one hour at 37° C. For Western blot assay, cells were rinsed free of compound/vehicle and lysed in a solution containing 70 mM NaCl, 50 mM glycerol phosphate, 10 mM HEPES, pH 7.4, 1% Triton X-100, 1 mM Na3VO4, 100 μM PMSF, 10 μM leupeptin and 10 μM pepstatin. Supernatants were then subjected to gel electrophoresis and hybridized to a primary antibody recognizing dually phosphorylated ERK1 and ERK2. To evaluate total MAPK levels, blots were subsequently ‘stripped’ and re-probed with a 1:1 mixture of polyclonal antibodies recognizing unphosphorylated ERK1 and ERK2. For pERK ELISA assay, pERK TiterZyme Enzyme immunometric Assay kits were acquired from Assay Designs, Inc (Ann Arbor, Mich.). Briefly, cells were harvested in lysis solution containing 50 mM β-glycerophosphate, 10 mM HEPES, ph7.4, 70 mM NaCl, 2 mM EDTA and 1% SDS and protein lysates were diluted 1:15 with supplied Assay buffer prior to the execution of the assay. The subsequent steps were carried out essentially as recommended by the manufacturer.
The inhibition data generated by the above protocols is disclosed in Table I. If several concentrations of inhibitor were tested, IC50 values (the concentration which gives 50% inhibition) were determined graphically from the dose response curve for % inhibition. Otherwise, percent inhibitions at measured concentrations are reported.
For orientation: In an ELISA, binding on a coated surface is turned into a signal by an enzyme label.
Regarding `CSc1ccc(Nc2cc(=O)n(C)cc2C(=O)NCCCO)c(F)c1` [Example 85, 4-(2-Fluoro-4-methylsulfanyl-phenylamino)-1-methyl-6-oxo-1,6-dihydro-pyridine-3-carboxylic acid (3-hydroxy-propyl)-amide], half-maximal inhibition (IC50) was put at 0.15 µM.

System in a further data set: not given
Test: not given
Settings: not given
On to `Cn1cc(C(=O)O)c(Nc2ccc3c(c2)CCC3)cc1=O` [Example 64, 4-(Indan-5-ylamino)-1-methyl-6-oxo-1,6-dihydro-pyridine-3-carboxylic acid], for which the melting point lay in the range of 218 to 220 °C.

With `CN(C)C(=O)c1cn(C)c(=O)cc1Nc1ccc(I)cc1F` [Example 52, 4-(2-Fluoro-4-iodoanilino)-N,N,1-trimethyl-6-oxo-1,6-dihydro-3-pyridinecarboxamide], the melting point is 106 to 111 °C.

Compound `CCc1ccc(Nc2cc(=O)[nH]cc2C(=O)NCCO)c(F)c1` [Example 13] showed a melting point of 256 to 258 °C.

As to `CCc1ccc(Nc2cc(=O)[nH]cc2C(=O)NCCCO)c(F)c1` [Example 16, 4-(4-Ethyl-2-fluoroanilino)-N-(3-hydroxypropyl)-6-oxo-1,6-dihydro-3-pyridinecarboxamide], the melting point fell in the range of 231 to 233 °C.

`Cc1ccc(Nc2cc(=O)n(C)cc2C(=O)O)cc1C` [Example 63, 4-(3,4-Dimethyl-phenylamino)-1-methyl-6-oxo-1,6-dihydro-pyridine-3-carboxylic acid] displayed a melting point of 238 to 242 °C.

`CCc1ccc(Nc2cc(=O)n(C)cc2C(N)=O)c(F)c1` [Example 18, 4-(4-Ethyl-2-fluoroanilino)-1-methyl-6-oxo-1,6-dihydro-3-pyridinecarboxamide] gave a melting point of 268 to 272 °C.

Regarding `COCCOCCn1cc(C(N)=O)c(Nc2ccc(I)cc2F)cc1=O` [Example 29, 4-(2-Fluoro-4-iodoanilino)-1-[2-(2-methoxyethoxy)ethyl]-6-oxo-1,6-dihydro-3-pyridinecarboxamide], the melting point was 114 to 116 °C.

`CC(O)CNC(=O)c1cn(C)c(=O)cc1Nc1ccc(I)cc1F` (centres unmarked) [Example 50, 4-(2-Fluoro-4-iodoanilino)-N-(2-hydroxypropyl)-1-methyl-6-oxo-1,6-dihydro-3-pyridinecarboxamide] registered a melting point of 161 to 166 °C.

Regarding `Cn1cc(C(=O)NOCCO)c(Nc2ccc(F)cc2F)cc1=O` [Example 33, 4-(2,4-Difluoroanilino)-N-(2-hydroxyethoxy)-1-methyl-6-oxo-1,6-dihydro-3-pyridinecarboxamide], the melting point was in the range of 232 to 238 °C.

With `Cn1cc(C(N)=O)c(Nc2ccc(Cl)c(Cl)c2)cc1=O` [Example 56, 4-(3,4-Dichloro-phenylamino)-1-methyl-6-oxo-1,6-dihydro-pyridine-3-carboxylic acid amide], the melting point was over 250 °C.

As for `Cc1ccc(Nc2cc(=O)n(C)cc2C(=O)NOCCO)c(F)c1` [Example 35, 4-(2-Fluoro-4-methylanilino)-N-(2-hydroxyethoxy)-1-methyl-6-oxo-1,6-dihydro-3-pyridinecarboxamide], the melting point is 110 to 115 °C.

In turn, `NC(=O)c1cn(CCO)c(=O)cc1Nc1ccc(I)cc1F` [Example 22, 4-(2-Fluoro-4-iodoanilino)-1-(2-hydroxyethyl)-6-oxo-1,6-dihydro-3-pyridinecarboxamide] registered a melting point of 212 to 215 °C.

Regarding `C#Cc1ccc(Nc2cc(=O)[nH]cc2C(=O)NCCO)c(F)c1` [Example 12, 4-(4-Ethynyl-2-fluoroanilino)-N-(2-hydroxyethyl)-6-oxo-1,6-dihydro-3-pyridinecarboxamide], the melting point was in the range of 265 to 273 °C.

Consider `Cn1cc(C(N)=O)c(Nc2ccc(C(F)(F)C(F)(F)C(F)(F)C(F)(F)F)cc2F)cc1=O`, for which the melting point is 112 to 118 °C.

Compound `Cn1cc(C(=O)NCCCN)c(Nc2ccc(I)cc2F)cc1=O` [Example 53, N-(3-Aminopropyl)-4-(2-fluoro-4-iodoanilino)-1-methyl-6-oxo-1,6-dihydro-3-pyridinecarboxamide] yielded a melting point of 201 to 206 °C.

In the case of `C#Cc1ccc(Nc2cc(=O)[nH]cc2C(=O)NCCCO)c(F)c1` [Example 15, 4-(4-Ethynyl-2-fluoroanilino)-N-(3-hydroxypropyl)-6-oxo-1,6-dihydro-3-pyridinecarboxamide], the melting point is 249 to 252 °C.

On to `Cn1cc(C(=O)O)c(Nc2ccc(I)cc2F)cc1=O` [Example 55, 4-(2-fluoro-4-iodoanilino)-1-methyl-6-oxo-1,6-dihydro-3-pyridinecarboxylic acid], for which the melting point fell in the range of 254 to 257 °C.

On to `Cn1cc(C(N)=O)c(Nc2ccc3ccccc3c2)cc1=O` [Example 43, 1-Methyl-4-(2-naphthylamino)-6-oxo-1,6-dihydro-3-pyridinecarboxamide], for which the melting point fell in the range of 254 to 257 °C.

The compound `CCCn1cc(C(N)=O)c(Nc2ccc(I)cc2F)cc1=O` [Example 28, 4-(2-Fluoro-4-iodoanilino)-6-oxo-1-propyl-1,6-dihydro-3-pyridinecarboxamide] gave a melting point of 218 to 220 °C.

`Cn1cc(C(=O)NC(CO)CO)c(Nc2ccc(I)cc2F)cc1=O` [Example 46, 4-(2-Fluoro-4-iodoanilino)-N-[2-hydroxy-1-(hydroxymethyl)ethyl]-1-methyl-6-oxo-1,6-dihydro-3-pyridinecarboxamide] had a melting point of 93 to 98 °C.

As to `Cn1cc(C(=O)NOCCO)c(Nc2ccc(Br)cc2F)cc1=O` [Example 38, 4-(4-Bromo-2-fluoroanilino)-N-(2-hydroxyethoxy)-1-methyl-6-oxo-1,6-dihydro-3-pyridinecarboxamide], the melting point was in the range of 124 to 128 °C.

`Cn1cc(C(=O)NCCO)c(Nc2ccc(I)cc2F)cc1=O` [Example 4, 4-(2-Fluoro-4-iodoanilino)-N-(2-hydroxyethyl)-1-methyl-6-oxo-1,6-dihydro-3-pyridinecarboxamide]: the melting point lay in the range of 205 to 208 °C.

`CCn1cc(C(N)=O)c(Nc2ccc(I)cc2F)cc1=O` [Example 27, 1-Ethyl-4-(2-fluoro-4-iodoanilino)-6-oxo-1,6-dihydro-3-pyridinecarboxamide] registered a melting point of 260 to 262 °C.

`NC(=O)c1cn(CC(=O)O)c(=O)cc1Nc1ccc(I)cc1F` [Example 25] yielded a melting point of 296 to 300 °C.

The compound `Cn1cc(C(=O)NCC(O)CO)c(Nc2ccc(I)cc2F)cc1=O` (centres unmarked) [Example 45, N-(2,3-Dihydroxypropyl)-4-(2-fluoro-4-iodoanilino)-1-methyl-6-oxo-1,6-dihydro-3-pyridinecarboxamide] showed a melting point of 96 to 101 °C.

`Cn1cc(C(=O)NCCCO)c(Nc2ccc(F)cc2F)cc1=O` [Example 34, 4-(2,4-Difluoroanilino)-N-(3-hydroxypropyl)-1-methyl-6-oxo-1,6-dihydro-3-pyridinecarboxamide] showed a melting point of 129 to 132 °C.

For the compound `NC(=O)c1cn(CCCO)c(=O)cc1Nc1ccc(I)cc1F` [Example 32, 4-(2-Fluoro-4-iodoanilino)-1-(3-hydroxypropyl)-6-oxo-1,6-dihydro-3-pyridinecarboxamide], the melting point was 220 to 223 °C.

`N#CCCCn1cc(C(N)=O)c(Nc2ccc(I)cc2F)cc1=O` [Example 26, 1-(3-Cyanopropyl)-4-(2-fluoro-4-iodoanilino)-6-oxo-1,6-dihydro-3-pyridinecarboxamide] gave a melting point of 146 to 150 °C.

As for `Cn1cc(C(=O)O)c(Nc2ccc(Cl)c(Cl)c2Cl)cc1=O` [Example 65, 1-Methyl-6-oxo-4-(2,3,4-trichloro-phenylamino)-1,6-dihydro-pyridine-3-carboxylic acid], the melting point lay within 258 to 261 °C.

Consider `Cn1cc(C(=O)NCCCO)c(Nc2ccc(Br)cc2F)cc1=O` [Example 39, 4-(4-Bromo-2-fluoroanilino)-N-(3-hydroxypropyl)-1-methyl-6-oxo-1,6-dihydro-3-pyridinecarboxamide], for which the melting point fell in the range of 167 to 170 °C.

The compound `Cn1cc(C(N)=O)c(Nc2ccc(C#N)cc2F)cc1=O` [Example 54, 4-(4-Cyano-2-fluoroanilino)-1-methyl-6-oxo-1,6-dihydro-3-pyridinecarboxamide] came in with a melting point of 261 to 266 °C.

Compound `CC(CO)NC(=O)c1cn(C)c(=O)cc1Nc1ccc(I)cc1F` (centres unmarked) [Example 49, 4-(2-Fluoro-4-iodoanilino)-N-(2-hydroxy-1-methylethyl)-1-methyl-6-oxo-1,6-dihydro-3-pyridinecarboxamide] displayed a melting point of 198 to 202 °C.

In turn, `O=C(NCCCO)c1cn(CCO)c(=O)cc1Nc1ccc(I)cc1F` [Example 23, 4-(2-Fluoro-4-iodoanilino)-1-(2-hydroxyethyl)-N-(3-hydroxypropyl)-6-oxo-1,6-dihydro-3-pyridinecarboxamide] showed a melting point of 174 to 176 °C.

Compound `Cc1ccc(Nc2cc(=O)n(C)cc2C(=O)NCCCO)c(F)c1` [Example 36, 4-(2-Fluoro-4-methylanilino)-N-(3-hydroxypropyl)-1-methyl-6-oxo-1,6-dihydro-3-pyridinecarboxamide] registered a melting point of 142 to 145 °C.

A word on the IC50: it is the concentration that inhibits the measured activity by half. A low value points to inhibition by little substance. For orientation: melting point means the temperature of the solid-liquid transition.
